This passage reports Ki results from patent publication US9732087B2, “Diamino-pyridine, pyrimidine, and pyridazine modulators of the histamine H4 receptor” (JANSSEN PHARMACEUTICA NV, priority 2008, dated 2017).

human H4 receptor, sequence (Q9H3N8 whole entry): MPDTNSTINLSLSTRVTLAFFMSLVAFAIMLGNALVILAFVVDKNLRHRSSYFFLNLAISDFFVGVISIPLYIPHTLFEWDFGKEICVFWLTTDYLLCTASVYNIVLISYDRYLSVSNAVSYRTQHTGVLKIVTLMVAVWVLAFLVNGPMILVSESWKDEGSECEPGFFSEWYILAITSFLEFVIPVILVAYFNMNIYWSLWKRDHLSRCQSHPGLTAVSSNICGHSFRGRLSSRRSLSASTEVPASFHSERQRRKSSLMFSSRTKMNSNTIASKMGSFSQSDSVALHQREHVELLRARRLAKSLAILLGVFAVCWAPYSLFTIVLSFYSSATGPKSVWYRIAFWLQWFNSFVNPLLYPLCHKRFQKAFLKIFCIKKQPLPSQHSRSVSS

This assay concerns the target human H4 receptor (Homo sapiens (Human), UniProt Q9H3N8). As to the kind of experiment: Binding assay on recombinant human histamine H4 receptor ([3H]histamine competition, SK-N-MC cell membranes). The following applies: membranes harvested with cell harvester; [3H]histamine 10 nM; average of results; read-out: Cell Harvester Ki. The procedure, abridged: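 Scintillation counting of filter-bound [3H]histamine after rapid harvesting on 0.5% PEI-treated GF/C filters with ice-cold Tris/EDTA washes. Receptor source: 30,000 g membrane pellets of SK-N-MC cells stably or transiently expressing human H4. Values shown as '>' are the top concentration tested.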
On to `COCCNc1cc(N2CC[C@@H](N)C2)cnn1` [Example 298, 5-[(3R)-3-Aminopyrrolidin-1-yl]-N-(2-methoxyethyl)pyridazin-3-amine], for which the Ki (commonly a measure of affinity in units of concentration, obtained from inhibition or displacement) was > 10 µM.
As for `CNC1CN(c2cnnc(NCCCC(F)(F)F)c2)C1` [Example 299, 5-[3-(Methylamino)azetidin-1-yl]-N-(4,4,4-trifluorobutyl)pyridazin-3-amine], the Ki was 0.146 µM.
Turning to `CN(CCN)c1cnnc(NCC(C)(C)C)c1` [Example 300, N^5-(2-Aminoethyl)-N^3-(2,2-dimethylpropyl)-N^5-methylpyridazine-3,5-diamine], the inhibition constant Ki stood at 1.86 µM.
As to `CNC1CN(c2cnnc(NC3C[C@H]4C[C@@H](C3C)C4(C)C)c2)C1` (stereo partly drawn) [Example 301, 5-[3-(Methylamino)azetidin-1-yl]-N-[(1S,5R)-2,6,6-trimethylbicyclo[3.1.1]hept-3-yl]pyridazin-3-amine], the Ki was 0.202 µM.
`CN(CCN)c1cnnc(NC2CC3CCC2C3)c1` (centres unmarked) [Example 302, N^5-(2-Amino-ethyl)-N^3-bicyclo[2.2.1]hept-2yl-N^5-methylpyridazine-3,5-diamine]: the Ki is 0.0981 µM.
`CN(CCN)c1cnnc(NCC2CCCC2)c1` [Example 303, N^5-(2-Aminoethyl)-N^3-(cyclopentylmethyl)-N^5-methylpyridazine-3,5-diamine]: the inhibition constant (Ki) was determined as 0.417 µM.
As for `OCCCNc1cc(N2C[C@H]3CCN[C@H]3C2)cnn1` [Example 305, 3-({5-[(3aR,6aR)-Hexahydropyrrolo[3,4-b]pyrrol-5(1H)-yl]pyridazin-3-yl}amino)propan-1-ol], the figure is 1.06 µM; as for `CC1(C)[C@H]2CC[C@H](CNc3cc(N4CC(N)C4)cnn3)[C@@H]1C2` [Example 306, 5-(3-Aminoazetidin-1-yl)-N-{[(1S,2S,5S)-6,6-dimethylbicyclo[3.1.1]hept-2-yl]methyl}pyridazin-3-amine], 7.22 µM; as for `CC(C)(C)CNc1cc(N2CCCNCC2)cnn1` [Example 307, 5-(1,4-Diazepan-1-y1)-N-(2,2-dimethylpropyl)pyridazin-3-amine], 0.536 µM.
As for `c1nnc(NC2CC2)cc1N1C[C@H]2CCN[C@H]2C1` [Example 309, N-Cyclopropyl-5-[(3aR,6aR)-hexahydropyrrolo[3,4-b]pyrrol-5(1H)-yl]pyridazin-3-amine], the figure is 1.6 µM; as for `CCCCNc1cc(N2C[C@H]3CCN[C@H]3C2)cnn1` [Example 310, N-Butyl-5-[(3aR,6aR)-hexahydropyrrolo[3,4-b]pyrrol-5(1H)-yl]pyridazin-3-amine], 0.621 µM.
Regarding `c1cc(N2CCNCC2)cc(NCC2CCCC2)n1` [Example 311, N-(Cyclopentylmethyl)-4-piperazin-1-ylpyridin-2-amine], the Ki was 0.226 µM.
As for `N[C@@H]1CCN(c2cnnc(NCC3CC4CCC3C4)c2)C1` (stereo partly drawn) [Example 312, 5-[(3R)-3-Aminopyrrolidin-1-yl]-N-(bicyclo[2.2.1]hept-2-ylmethyl)pyridazin-3-amine], the inhibition constant Ki came to 0.547 µM.
Consider `N[C@@H]1CCN(c2cnnc(NCCCO)c2)C1` [Example 313, 3-({5-[(3R)-3-Aminopyrrolidin-1-yl]pyridazin-3-yl}amino)propan-1-ol], for which the inhibition constant (Ki) is > 10 µM.
As for `OCCCNc1cc(N2CCNCC2)cnn1` [Example 314, 3-[(5-Piperazin-1-ylpyridazin-3-yl)amino]propan-1-ol], the figure is > 10 µM.
In the case of `c1nnc(NC2CC2)cc1N1CCNCC1` [Example 315, N-Cyclopropyl-5-piperazin-1-ylpyridazin-3-amine], the Ki was 1.92 µM.
As for `c1nnc(NCC2CCCC2)cc1N1CCCNCC1` [Example 316, N-(Cyclopentylmethyl)-5-(1,4-diazepan-1-yl)pyridazin-3-amine], the figure is 0.275 µM; as for `N[C@H]1CCN(c2cnnc(NCC3CCCC3)c2)C1` [Example 317, 5-[(3S)-3-Aminopyrrolidin-1-yl]-N-(cyclopentylmethyl)pyridazin-3-amine], 0.93 µM; as for `CC(C)CNc1cc(N2C[C@H]3CCN[C@H]3C2)cnn1` [Example 318, 5-[(3aR,6aR)-Hexahydropyrrolo[3,4-b]pyrrol-5(1H)-yl]-N-(2-methylpropyl)pyridazin-3-amine], 1.24 µM.
With `CNC1CN(c2cnnc(NCC(C)C)c2)C1` [Example 319, 5-[3-(Methylamino)azetidin-1-yl]-N-(2-methylpropyl)pyridazin-3-amine], the Ki was found to be 0.478 µM.
As to `CNC1CN(c2cnnc(NCCOC)c2)C1` [Example 320, N-(2-Methoxyethyl)-5-[3-(methylamino)azetidin-1-yl]pyridazin-3-amine], the inhibitory constant (Ki) amounted to 4.31 µM.
Turning to `C[C@@H](Nc1cc(N2CC[C@@H](N)C2)cnn1)c1ccccc1` [Example 321, 5-[(3R)-3-Aminopyrrolidin-1-yl]-N-[(1R)-1-phenylethyl]pyridazin-3-amine], the Ki stood at 0.626 µM.
As for `NC1CN(c2cnnc(NC3CC4CCC3C4)c2)C1` (centres unmarked) [Example 322, 5-(3-Aminoazetidin-1-yl)-N-bicyclo[2.2.1]hept-2-ylpyridazin-3-amine], the figure is 0.0881 µM; as for `CC(C)(C)CNc1cc(N2CC(N)C2)cnn1` [Example 323, 5-(3-Aminoazetidin-1-yl)-N-(2,2-dimethylpropyl)pyridazin-3-amine], > 10 µM.
Turning to `CNC1CN(c2cnnc(NCC(C)(C)C)c2)C1` [Example 324, N-(2,2-Dimethylpropyl)-5-[3-(methylamino)azetidin-1-yl]pyridazin-3-amine], the inhibition constant (Ki) stood at 0.899 µM.
Regarding `CNC1CN(c2cnnc(NC3CCCCC3)c2)C1` [Example 325, N-Cyclohexyl-5-[3-(methylamino)azetidin-1-yl]pyridazin-3-amine], the Ki was 0.798 µM.
Take `NC1CN(c2cnnc(NC3CCCC3)c2)C1` [Example 326, 5-(3-Aminoazetidin-1-yl)-N-cyclopentylpyridazin-3-amine]: the Ki is 2.74 µM.
In the case of `CNC1CN(c2cnnc(NCC3CC3)c2)C1` [Example 327, N-(Cyclopropylmethyl)-5-[3-(methylamino)azetidin-1-yl]pyridazin-3-amine], the Ki was found to be 0.0953 µM.
On to `CC(C)CNc1cc(N2CC(N)C2)cnn1` [Example 328, 5-(3-Aminoazetidin-1-yl)-N-(2-methylpropyl)pyridazin-3-amine], for which the Ki was 1.68 µM.
Regarding `NC1CN(c2cnnc(NCc3ccccc3)c2)C1` [Example 329, 5-(3-Aminoazetidin-1-yl)-N-benzylpyridazin-3-amine], the Ki was > 10 µM.
Consider `CNC1CN(c2cnnc(NCc3ccccc3)c2)C1` [Example 330, N-Benzyl-5-[3-(methylamino)azetidin-1-yl]pyridazin-3-amine], for which the Ki is 2.59 µM.
As for `CNC1CN(c2cnnc(NC3CCCC3)c2)C1` [Example 332, N-Cyclopentyl-5-[3-(methylamino)azetidin-1-yl]pyridazin-3-amine], the Ki is 1.66 µM.
For the compound `NC1CN(c2cnnc(NC3CC3)c2)C1` [Example 333, 5-(3-Aminoazetidin-1-yl)-N-cyclopropylpyridazin-3-amine], the inhibitory constant (Ki) was > 10 µM.
As for `CNC1CN(c2cnnc(NCCCO)c2)C1` [Example 334, 3-({5-[3-(Methylamino)azetidin-1-yl]pyridazin-3-yl}amino)propan-1-ol], the Ki worked out at 2.57 µM.
With `COCCNc1cc(N2CC(N)C2)cnn1` [Example 335, 5-(3-Aminoazetidin-1-yl)-N-(2-methoxyethyl)pyridazin-3-amine], the inhibitory constant (Ki) is > 10 µM.
Regarding `N[C@H]1CCN(c2cnnc(NC3CC3)c2)C1` [Example 336, 5-[(3S)-3-Aminopyrrolidin-1-yl]-N-cyclopropylpyridazin-3-amine], the Ki was > 10 µM.
For `N[C@@H]1CCN(c2cnnc(NCc3ccccn3)c2)C1` [Example 337, 5-[(3R)-3-Aminopyrrolidin-1-yl]-N-(pyridin-2-ylmethyl)pyridazin-3-amine], the inhibition constant Ki is > 10 µM.
Regarding `CC(C)CNc1cc(N2CC[C@H](N)C2)cnn1` [Example 339, 5-[(3S)-3-Aminopyrrolidin-1-yl]-N-(2-methylpropyl)pyridazin-3-amine], the inhibition constant (Ki) is 0.22 µM.
`N[C@@H]1CCN(c2cnnc(NCc3ccccc3)c2)C1` [Example 340, 5-[(3R)-3-Aminopyrrolidin-1-yl]-N-benzylpyridazin-3-amine]: the inhibition constant (Ki) stood at 2.03 µM.
On to `COc1ccc(CNc2cc(N3CC[C@@H](N)C3)cnn2)cc1` [Example 341, 5-[(3R)-3-Aminopyrrolidin-1-yl]-N-(4-methoxybenzyl)pyridazin-3-amine], for which the Ki is > 10 µM.
As for `N[C@@H]1CCN(c2cnnc(NCc3ccc(F)cc3)c2)C1` [Example 342, 5-[(3R)-3-Aminopyrrolidin-1-yl]-N-(4-fluorobenzyl)pyridazin-3-amine], the Ki came out at 0.936 µM.
As for `Cc1ccc(CNc2cc(N3CC[C@@H](N)C3)cnn2)cc1` [Example 343, 5-[(3R)-3-Aminopyrrolidin-1-yl]-N-(4-methylbenzyl)pyridazin-3-amine], the figure is > 10 µM; as for `Cc1ccc(CNc2cc(N3CCNCC3)cnn2)cc1` [Example 344, N-(4-Methylbenzyl)-5-piperazin-1-ylpyridazin-3-amine], > 10 µM.
As for `c1nnc(NC2CCCC2)cc1N1C[C@H]2CCN[C@H]2C1` [Example 345, N-Cyclopentyl-5-[(3aR,6aR)-hexahydropyrrolo[3,4-b]pyrrol-5(1H)-yl]pyridazin-3-amine], the figure is 1.32 µM.
As for `Fc1ccc(CNc2cc(N3CCNCC3)cnn2)cc1` [Example 346, N-(4-Fluorobenzyl)-5-piperazin-1-ylpyridazin-3-amine], the figure is > 10 µM.
`COc1ccc(CNc2cc(N3CCNCC3)cnn2)cc1` [Example 347, N-(4-Methoxybenzyl)-5-piperazin-1-ylpyridazin-3-amine]: the inhibition constant Ki was > 10 µM.
Consider `c1ccc(CNc2cc(N3CCNCC3)cnn2)cc1` [Example 348, N-Benzyl-5-piperazin-1-ylpyridazin-3-amine], for which the inhibition constant (Ki) was > 10 µM.
